Measured values taken from paper PMC10838953.

What was measured:
survivin = conditions: 786-O cells; 2.5-15 μM; 48 h
p21 (T145) = conditions: HEK293 cells; 48 h
[1] = biological target: ABL1(E255K)-phosphorylated (Homo sapiens, UniProt P00519, E255K); experiment: biochemical; conditions: read-out: %Ctrl @ 2000nM
[2] = biological target: ABL1(F317L)-phosphorylated (Homo sapiens, UniProt P00519, F317L); experiment: biochemical; conditions: read-out: %Ctrl @ 2000nM
ABL1-nonphosphorylated = ABL1-nonphosphorylated (Homo sapiens, UniProt P00519); experiment: biochemical; conditions: read-out: %Ctrl @ 2000nM
ABL1-phosphorylated = ABL1-phosphorylated (Homo sapiens, UniProt P00519); experiment: biochemical; conditions: read-out: %Ctrl @ 2000nM
ACVR2B = ACVR2B (Homo sapiens, UniProt Q13705); experiment: biochemical; conditions: read-out: %Ctrl @ 2000nM
BIKE = BIKE (Homo sapiens, UniProt Q9NSY1); experiment: biochemical; conditions: read-out: %Ctrl @ 2000nM
CAMKK2 = CAMKK2 (Homo sapiens, UniProt Q96RR4); experiment: biochemical; conditions: read-out: %Ctrl @ 2000nM
CASK = CASK (Homo sapiens, UniProt O14936); experiment: biochemical; conditions: read-out: %Ctrl @ 2000nM
CASK, sequence (O14936 whole entry): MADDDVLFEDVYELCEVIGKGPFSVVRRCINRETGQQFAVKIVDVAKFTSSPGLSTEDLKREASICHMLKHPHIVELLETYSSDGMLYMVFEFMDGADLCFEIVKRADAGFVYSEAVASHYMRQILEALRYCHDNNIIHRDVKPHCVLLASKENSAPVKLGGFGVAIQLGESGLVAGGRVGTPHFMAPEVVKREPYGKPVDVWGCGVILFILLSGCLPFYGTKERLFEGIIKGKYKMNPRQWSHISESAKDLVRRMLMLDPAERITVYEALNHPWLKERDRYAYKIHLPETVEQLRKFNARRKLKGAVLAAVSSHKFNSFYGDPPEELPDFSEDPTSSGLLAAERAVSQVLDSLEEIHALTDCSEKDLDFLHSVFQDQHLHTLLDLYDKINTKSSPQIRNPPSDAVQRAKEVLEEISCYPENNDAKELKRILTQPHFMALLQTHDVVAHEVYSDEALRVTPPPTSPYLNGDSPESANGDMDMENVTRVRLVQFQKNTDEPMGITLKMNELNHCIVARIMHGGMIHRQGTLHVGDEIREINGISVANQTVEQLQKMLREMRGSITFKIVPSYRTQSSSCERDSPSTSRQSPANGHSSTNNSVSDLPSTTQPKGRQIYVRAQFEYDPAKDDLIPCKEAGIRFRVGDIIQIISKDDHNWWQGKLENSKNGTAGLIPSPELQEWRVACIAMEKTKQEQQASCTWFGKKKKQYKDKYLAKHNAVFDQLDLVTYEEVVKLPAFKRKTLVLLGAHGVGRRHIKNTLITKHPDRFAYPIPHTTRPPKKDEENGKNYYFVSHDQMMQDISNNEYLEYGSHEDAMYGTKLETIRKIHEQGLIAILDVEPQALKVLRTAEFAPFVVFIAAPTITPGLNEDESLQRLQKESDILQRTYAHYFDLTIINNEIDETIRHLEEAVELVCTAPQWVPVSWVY

CDK4-cyclinD1 = CDK4-cyclinD1 (Homo sapiens, UniProt P11802); experiment: biochemical; conditions: read-out: %Ctrl @ 2000nM
CDKL3 = CDKL3 (Homo sapiens, UniProt Q8IVW4); experiment: biochemical; conditions: read-out: %Ctrl @ 2000nM
CSF1R-autoinhibited = CSF1R-autoinhibited (Homo sapiens, UniProt P07333); experiment: biochemical; conditions: read-out: %Ctrl @ 2000nM
EPHA6 = EPHA6 (Homo sapiens, UniProt Q9UF33); experiment: biochemical; conditions: read-out: %Ctrl @ 2000nM
ERK4 = ERK4 (Homo sapiens, UniProt P31152); experiment: biochemical; conditions: read-out: %Ctrl @ 2000nM
FLT3(D835Y) = FLT3(D835Y) (Homo sapiens, UniProt P36888, D835Y); experiment: biochemical; conditions: read-out: %Ctrl @ 2000nM
FLT4 = FLT4 (Homo sapiens, UniProt P35916); experiment: biochemical; conditions: read-out: %Ctrl @ 2000nM
GSK3A = GSK3A (Homo sapiens, UniProt P49840); experiment: biochemical; conditions: read-out: %Ctrl @ 2000nM
INSR = INSR (Homo sapiens, UniProt P06213); experiment: biochemical; conditions: read-out: %Ctrl @ 2000nM
KIT = KIT (Homo sapiens, UniProt P10721); experiment: biochemical; conditions: read-out: %Ctrl @ 2000nM
KIT(D816H) = KIT(D816H) (Homo sapiens, UniProt P10721, D816H); experiment: biochemical; conditions: read-out: %Ctrl @ 2000nM
LATS1 = LATS1 (Homo sapiens, UniProt O95835); experiment: biochemical; conditions: read-out: %Ctrl @ 2000nM
LATS1, sequence (O95835 whole entry): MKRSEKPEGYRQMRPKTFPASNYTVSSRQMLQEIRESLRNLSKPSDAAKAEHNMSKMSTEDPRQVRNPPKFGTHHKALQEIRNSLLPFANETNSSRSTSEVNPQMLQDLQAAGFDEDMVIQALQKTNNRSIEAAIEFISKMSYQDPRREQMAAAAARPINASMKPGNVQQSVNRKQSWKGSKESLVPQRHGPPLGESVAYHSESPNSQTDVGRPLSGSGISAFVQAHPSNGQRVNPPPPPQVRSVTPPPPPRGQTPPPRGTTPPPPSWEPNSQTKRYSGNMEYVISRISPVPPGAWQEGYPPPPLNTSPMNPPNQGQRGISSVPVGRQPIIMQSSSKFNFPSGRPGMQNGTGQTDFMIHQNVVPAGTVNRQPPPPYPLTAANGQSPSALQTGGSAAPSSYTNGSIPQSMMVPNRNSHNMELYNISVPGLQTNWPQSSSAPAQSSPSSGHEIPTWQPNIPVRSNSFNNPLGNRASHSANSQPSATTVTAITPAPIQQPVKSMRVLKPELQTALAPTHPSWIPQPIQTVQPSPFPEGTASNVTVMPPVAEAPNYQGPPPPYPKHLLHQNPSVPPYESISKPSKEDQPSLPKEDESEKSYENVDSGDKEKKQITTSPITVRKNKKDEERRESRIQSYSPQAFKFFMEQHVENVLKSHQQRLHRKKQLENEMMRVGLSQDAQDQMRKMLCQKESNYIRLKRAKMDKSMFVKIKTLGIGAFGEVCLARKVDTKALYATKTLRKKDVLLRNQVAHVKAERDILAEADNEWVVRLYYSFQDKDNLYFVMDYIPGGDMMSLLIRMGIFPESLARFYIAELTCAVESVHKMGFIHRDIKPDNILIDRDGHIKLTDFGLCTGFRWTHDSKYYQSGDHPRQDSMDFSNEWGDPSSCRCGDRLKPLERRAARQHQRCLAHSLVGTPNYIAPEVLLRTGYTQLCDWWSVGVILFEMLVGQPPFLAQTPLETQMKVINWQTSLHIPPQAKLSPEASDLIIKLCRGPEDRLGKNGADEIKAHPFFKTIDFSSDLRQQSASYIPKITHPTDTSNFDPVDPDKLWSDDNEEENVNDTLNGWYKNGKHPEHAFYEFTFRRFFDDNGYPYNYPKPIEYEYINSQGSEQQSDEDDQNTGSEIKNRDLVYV

MAPKAPK5 = MAPKAPK5 (Homo sapiens, UniProt Q8IW41); experiment: biochemical; conditions: read-out: %Ctrl @ 2000nM
MUSK = MUSK (Homo sapiens, UniProt O15146); experiment: biochemical; conditions: read-out: %Ctrl @ 2000nM
MYO3A = MYO3A (Homo sapiens, UniProt Q8NEV4); experiment: biochemical; conditions: read-out: %Ctrl @ 2000nM
NEK2 = NEK2 (Homo sapiens, UniProt P51955); experiment: biochemical; conditions: read-out: %Ctrl @ 2000nM
NEK2, sequence (P51955 whole entry): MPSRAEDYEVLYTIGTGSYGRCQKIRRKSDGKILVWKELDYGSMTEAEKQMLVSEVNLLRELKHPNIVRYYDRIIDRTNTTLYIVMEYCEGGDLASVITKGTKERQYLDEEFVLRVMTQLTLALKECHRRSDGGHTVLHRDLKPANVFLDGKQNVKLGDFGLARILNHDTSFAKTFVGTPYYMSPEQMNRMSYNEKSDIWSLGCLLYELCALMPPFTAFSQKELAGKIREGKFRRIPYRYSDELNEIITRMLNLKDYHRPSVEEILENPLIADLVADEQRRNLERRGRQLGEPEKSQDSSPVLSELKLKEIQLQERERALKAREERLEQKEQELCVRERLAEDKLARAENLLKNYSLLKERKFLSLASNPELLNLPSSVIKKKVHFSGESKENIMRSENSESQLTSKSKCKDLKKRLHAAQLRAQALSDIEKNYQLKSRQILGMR

PHKG2 = PHKG2 (Homo sapiens, UniProt P15735); experiment: biochemical; conditions: read-out: %Ctrl @ 2000nM
PIK3C2G = PIK3C2G (Homo sapiens, UniProt O75747); experiment: biochemical; conditions: read-out: %Ctrl @ 2000nM
PIK3CB = PIK3CB (Homo sapiens, UniProt P42338); experiment: biochemical; conditions: read-out: %Ctrl @ 2000nM
PIM2 = PIM2 (Homo sapiens, UniProt Q9P1W9); experiment: biochemical; conditions: read-out: %Ctrl @ 2000nM
PIP5K1A = PIP5K1A (Homo sapiens, UniProt Q99755); experiment: biochemical; conditions: read-out: %Ctrl @ 2000nM
PRKCH = PRKCH (Homo sapiens, UniProt P24723); experiment: biochemical; conditions: read-out: %Ctrl @ 2000nM
PRKCI = PRKCI (Homo sapiens, UniProt P41743); experiment: biochemical; conditions: read-out: %Ctrl @ 2000nM
PRP4 = PRP4 (Homo sapiens, UniProt Q13523); experiment: biochemical; conditions: read-out: %Ctrl @ 2000nM
PRP4, sequence (Q13523 whole entry): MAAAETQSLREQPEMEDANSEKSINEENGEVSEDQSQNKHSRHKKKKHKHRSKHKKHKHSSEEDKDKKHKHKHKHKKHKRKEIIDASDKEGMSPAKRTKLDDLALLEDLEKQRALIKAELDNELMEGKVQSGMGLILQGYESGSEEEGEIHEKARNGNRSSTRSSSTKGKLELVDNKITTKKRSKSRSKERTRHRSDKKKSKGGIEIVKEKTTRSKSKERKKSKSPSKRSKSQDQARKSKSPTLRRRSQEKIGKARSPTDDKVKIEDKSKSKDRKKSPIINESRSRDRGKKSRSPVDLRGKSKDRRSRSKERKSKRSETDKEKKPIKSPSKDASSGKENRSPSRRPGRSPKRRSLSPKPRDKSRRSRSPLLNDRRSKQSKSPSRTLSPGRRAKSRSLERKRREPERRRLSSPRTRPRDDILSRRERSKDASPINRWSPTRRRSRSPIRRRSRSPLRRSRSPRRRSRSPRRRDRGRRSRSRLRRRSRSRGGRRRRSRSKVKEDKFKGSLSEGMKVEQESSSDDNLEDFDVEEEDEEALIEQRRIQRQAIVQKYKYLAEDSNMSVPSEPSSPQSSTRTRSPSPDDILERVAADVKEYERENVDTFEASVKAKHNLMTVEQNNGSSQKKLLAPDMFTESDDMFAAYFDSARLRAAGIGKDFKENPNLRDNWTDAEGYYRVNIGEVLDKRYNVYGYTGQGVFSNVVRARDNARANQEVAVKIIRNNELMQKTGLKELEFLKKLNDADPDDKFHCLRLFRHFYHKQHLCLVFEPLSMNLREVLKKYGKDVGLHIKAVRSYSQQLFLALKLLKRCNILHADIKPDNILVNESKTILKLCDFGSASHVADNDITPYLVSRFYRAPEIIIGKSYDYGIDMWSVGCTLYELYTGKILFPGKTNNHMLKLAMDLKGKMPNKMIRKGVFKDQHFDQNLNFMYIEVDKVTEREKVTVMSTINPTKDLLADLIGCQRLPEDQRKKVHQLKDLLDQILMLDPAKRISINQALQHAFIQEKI

QSK = QSK (Homo sapiens, UniProt Q9Y2K2); experiment: biochemical; conditions: read-out: %Ctrl @ 2000nM
QSK, sequence (Q9Y2K2 whole entry): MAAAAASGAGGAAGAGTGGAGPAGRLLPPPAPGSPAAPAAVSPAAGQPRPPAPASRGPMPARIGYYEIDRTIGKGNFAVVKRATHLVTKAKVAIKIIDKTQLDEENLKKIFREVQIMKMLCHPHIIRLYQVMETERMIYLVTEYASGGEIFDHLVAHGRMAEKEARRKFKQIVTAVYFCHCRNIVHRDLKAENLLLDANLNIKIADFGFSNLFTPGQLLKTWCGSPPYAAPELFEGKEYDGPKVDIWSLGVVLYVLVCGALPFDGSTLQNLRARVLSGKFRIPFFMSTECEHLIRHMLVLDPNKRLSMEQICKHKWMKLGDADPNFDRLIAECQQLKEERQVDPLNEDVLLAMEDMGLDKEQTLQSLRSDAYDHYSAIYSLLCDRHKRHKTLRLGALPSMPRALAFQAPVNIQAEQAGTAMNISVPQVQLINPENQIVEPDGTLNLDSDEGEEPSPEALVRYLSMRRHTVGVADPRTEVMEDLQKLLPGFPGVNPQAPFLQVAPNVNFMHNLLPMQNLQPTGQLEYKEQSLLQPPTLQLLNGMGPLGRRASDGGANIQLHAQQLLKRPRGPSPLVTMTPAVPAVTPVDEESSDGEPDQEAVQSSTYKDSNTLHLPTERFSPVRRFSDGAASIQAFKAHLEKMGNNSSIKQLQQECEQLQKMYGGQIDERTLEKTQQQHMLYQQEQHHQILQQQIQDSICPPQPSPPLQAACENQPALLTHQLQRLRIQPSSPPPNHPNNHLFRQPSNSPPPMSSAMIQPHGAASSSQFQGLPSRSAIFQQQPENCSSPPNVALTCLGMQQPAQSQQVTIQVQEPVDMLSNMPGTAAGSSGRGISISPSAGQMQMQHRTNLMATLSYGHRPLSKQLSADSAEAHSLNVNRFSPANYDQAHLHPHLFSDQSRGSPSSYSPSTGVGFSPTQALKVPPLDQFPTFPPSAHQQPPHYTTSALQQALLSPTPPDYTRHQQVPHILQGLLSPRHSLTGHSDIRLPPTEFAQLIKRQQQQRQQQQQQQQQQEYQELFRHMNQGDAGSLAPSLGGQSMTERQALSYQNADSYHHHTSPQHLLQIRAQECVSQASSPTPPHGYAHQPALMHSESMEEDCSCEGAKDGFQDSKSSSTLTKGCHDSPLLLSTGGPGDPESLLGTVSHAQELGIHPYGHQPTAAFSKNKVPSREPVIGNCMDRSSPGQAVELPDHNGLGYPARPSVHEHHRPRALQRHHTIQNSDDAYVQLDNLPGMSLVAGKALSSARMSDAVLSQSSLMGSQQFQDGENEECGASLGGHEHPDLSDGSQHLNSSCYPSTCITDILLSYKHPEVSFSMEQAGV

RIOK2 = RIOK2 (Homo sapiens, UniProt Q9BVS4); experiment: biochemical; conditions: read-out: %Ctrl @ 2000nM
[3] = biological target: RPS6KA5(Kin.Dom.1-N-terminal) (Homo sapiens, UniProt O75582); experiment: biochemical; conditions: read-out: %Ctrl @ 2000nM
[4] = biological target: RSK2(Kin.Dom.1-N-terminal) (Homo sapiens, UniProt P51812); experiment: biochemical; conditions: read-out: %Ctrl @ 2000nM
SGK = SGK (Homo sapiens, UniProt O00141); experiment: biochemical; conditions: read-out: %Ctrl @ 2000nM
SIK2 = SIK2 (Homo sapiens, UniProt Q9H0K1); experiment: biochemical; conditions: read-out: %Ctrl @ 2000nM
TAOK1 = TAOK1 (Homo sapiens, UniProt Q7L7X3); experiment: biochemical; conditions: read-out: %Ctrl @ 2000nM
TESK1 = TESK1 (Homo sapiens, UniProt Q15569); experiment: biochemical; conditions: read-out: %Ctrl @ 2000nM
WNK2 = WNK2 (Homo sapiens, UniProt Q9Y3S1); experiment: biochemical; conditions: read-out: %Ctrl @ 2000nM

Structure (SMILES): CC(C)COC(=O)c1[nH]c2ccc(F)cc2c1-c1cn(CC2CCN(CCNS(=O)(=O)c3ccc(CC(C)C)cc3)CC2)nn1 [AB668, isobutyl 5-fluoro-3-(1-((1-(2-((4-isobutylphenyl)sulfonamido)ethyl)piperidin-4-yl)methyl)-1H-1,2,3-triazol-4-yl)-1H-indole-2-carboxylate]
- expression of survivin (survivin): reduced the expression of survivin
- p21 phosphorylation (p21 (T145)): weakly affected
- remaining activity at 2 µM [1]: 67%
- remaining activity at 2 µM [2]: 78%
- remaining activity at 2 µM (ABL1-nonphosphorylated): 96%
- remaining activity at 2 µM (ABL1-phosphorylated): 82%
- remaining activity at 2 µM (ACVR2B): 92%
- remaining activity at 2 µM (BIKE): 99%
- remaining activity at 2 µM (CAMKK2): 81%
- remaining activity at 2 µM (CASK): 97%
- remaining activity at 2 µM (CDK4-cyclinD1): 84%
- remaining activity at 2 µM (CDKL3): 88%
- remaining activity at 2 µM (CSF1R-autoinhibited): 85%
- remaining activity at 2 µM (EPHA6): 83%
- remaining activity at 2 µM (ERK4): 84%
- remaining activity at 2 µM (FLT3(D835Y)): 79%
- remaining activity at 2 µM (FLT4): 98%
- remaining activity at 2 µM (GSK3A): 84%
- remaining activity at 2 µM (INSR): 97%
- remaining activity at 2 µM (KIT): 95%
- remaining activity at 2 µM (KIT(D816H)): 58%
- remaining activity at 2 µM (LATS1): 100%
- remaining activity at 2 µM (MAPKAPK5): 95%
- remaining activity at 2 µM (MUSK): 92%
- remaining activity at 2 µM (MYO3A): 96%
- remaining activity at 2 µM (NEK2): 90%
- remaining activity at 2 µM (PHKG2): 88%
- remaining activity at 2 µM (PIK3C2G): 100%
- remaining activity at 2 µM (PIK3CB): 90%
- remaining activity at 2 µM (PIM2): 84%
- remaining activity at 2 µM (PIP5K1A): 85%
- remaining activity at 2 µM (PRKCH): 92%
- remaining activity at 2 µM (PRKCI): 85%
- remaining activity at 2 µM (PRP4): 95%
- remaining activity at 2 µM (QSK): 85%
- remaining activity at 2 µM (RIOK2): 73%
- remaining activity at 2 µM [3]: 95%
- remaining activity at 2 µM [4]: 61%
- remaining activity at 2 µM (SGK): 100%
- remaining activity at 2 µM (SIK2): 100%
- remaining activity at 2 µM (TAOK1): 100%
- remaining activity at 2 µM (TESK1): 95%
- remaining activity at 2 µM (WNK2): 87%
